In patent US5624906A, “Oral hygiene compositions comprising heteroatom containing alkyl aldonamide compounds” (Lever Brothers Company, Division of Conopco, Inc., priority 1994, dated 1997):
Where two headings read alike, the source gives them in different places.

How the values were obtained:
[1] = Ross-Miles foam height (Examples 81-84); type: physicochemical; settings: 0.1% aldonamide, 40° C. (or 5-10° C. above Krafft point), 0 ppm hardness; for Foam Height Final: after 10 minutes
Procedure: In the Ross-Miles method, 200 mL of a surfactant solution contained in a pipette of specified dimensions with a 2.9-mm-i.d. orifice is allowed to fall 90 cm onto 50 mL of the same solution contained in a cylindrical vessel maintained at a given temperature by means of a water jacket. The height of the foam produced in the cylindrical vessel is read immediately after all the solution has run out of the pipette and then again after a given amount of time.
Using this method, the foam production (initial foam height in mm) and foam stability (final foam height after 10 minutes in mm) were measured at 0.1% aldonamide concentration, 40° C. and 0 ppm (parts per million) hardness.

[2] = Clarity of prototype surfactant compositions (Example 87); type: physicochemical; settings: room temperature; for Appearance: 6 months
Procedure: The prototype shampoo composition is as follows:
(§1) The above formulations were prepared by admixing the above ingredients in listed order and heating the mixture to about 80° C. with rapid stirring. The mixture was then cooled to about 40° C., placed in a clear jar and stored at room temperature for 6 months.

[3] = Krafft point; type: physicochemical; settings: for Krafft Point (0.1%): 0.1% in water; for Krafft Point (1.0%): 1.0% in water
Procedure: The temperature at and above which surfactants begin to form micelles instead of precipitates is referred to as the Krafft point (Tk) and at this temperature the solubility of a surfactant becomes equal to its CMC (numerical value at which micelles are formed).
The Krafft point was measured by preparing 650 ml of a 0.1% or 1.0% dispersion of aldonamide in water by weight. If the surfactant was soluble at room temperature, the solution was slowly cooled to 0° C. […] (less than zero). If it precipitated out of solution, the temperature at which precipitation occurs was taken as the Krafft point.
If the surfactant was insoluble at room temperature, the dispersion was slowly heated until the solution became homogeneous. It was then slowly cooled until precipitation occurred. The temperature at which the surfactant precipitates out of solution upon cooling was taken as the Krafft point.

[4] = Viscosity of sodium lauryl sulfate compositions (Example 88); type: physicochemical; settings: for Viscosity: 22° C.
Procedure: The prototype surfactant composition is as follows:
as §1
It is well known that the viscosity of a liquid composition comprising of anionic surfactant can be modified by the addition of inorganic salts, such as sodium chloride. However, in the absence of an organic modifier, high levels of salt may be necessary to achieve the required viscosity which may lead to problems of storage at cold temperature or even salting out certain ingredients. In practice, however, the viscosity of a liquid composition is modified by the simultaneous addition of thickener and small amounts of inorganic salt (viscosity cobuilder). The combined effect is greater than either one alone. The viscosity of the above prototype surfactant composition comprising various amounts of heteroatom containing alkyl aldonamide compound is as follows: […]

[5] = Effectiveness of adsorption (surface excess concentration, Gibbs equation); type: physicochemical; settings: 60 °C, estimated by extrapolating a linear line
Excerpt: The surface excess concentration at surface saturation (Γmax) is defined as a measure of the effectiveness of surfactant adsorption at the water/air interface and represents the maximum value to which adsorption can be obtained. Effectiveness of adsorption is related to the interfacial area occupied by the surfactant molecule. The smaller the effective cross-sectional area of a surfactant at the interface, the greater its effectiveness of adsorption. The effectiveness of adsorption is an important factor in determining surfactant properties such as detergency, foaming, wetting or emulsification. While not wishing to be bound by theory, it is believed that surfactants that absorb effectively at the interface tend have tightly packed coherent interfacial films and often provide better surfactant benefits than those with loosely packed noncoherent films. The effectiveness of adsorption of C8 /C10 oxypropyl D-gluconamide was determined using the Gibbs equation given as: […]
(∂γ/∂log[Conc])T

[6] = cited from earlier work
[7] = Effectiveness in reducing surface tension (surface pressure at CMC); type: physicochemical; settings: 60 °C, estimated by extrapolating a linear line
Excerpt: As mentioned before, surface tension reduction depends on the replacement of water molecules at the interface by surfactant molecules, therefore the effectiveness of a surfactant in reducing interfacial surface tension should reflect the saturated concentration of surfactant at the interface relative to that in bulk liquid phase. During this process the surface tension of water steadily decreases as bulk phase surfactant concentration increases. This will continue until the concentration reaches the critical micelle concentration (CMC), above which the surface tension remains nearly unchanged and the interface is saturated with surfactant. The surface tension at the CMC is therefore very close to the minimum interfacial tension or maximum surface pressure that the system can achieve. The surface pressure at this point, IIcmc, is a suitable measure of the effectiveness of a surfactant in reducing surface tension and is given as:
IIcmc =20+2.3nRT(Γmax) log[CMC/C20 ]
n=1 which represents the number of ions whose surface concentration changes with the change in liquid phase surfactant concentration.
CMC/C20 =is the ratio of the critical micelie concentration to the bulk phase surfactant concentration necessary to reduce the surface tension of water by 20 dyn/cm.

[8] = cited from earlier work; remark: listed apart in the source
[9] = Foam stability and enhancement of sodium/ammonium lauryl sulfate, Ross-Miles (Example 86); type: physicochemical; settings: 0 ppm hardness, 45° C., 4.0% foam stabilizer in sodium/ammonium lauryl sulfate composition
Procedure: The results were compared to identical compositions comprising petrochemically derived foam stabilizing agents, in particular, alkanolamides and alcohol ethoxylates. The prototype surfactant composition is as follows:
The compositions were prepared by admixing the ingredients in listed order with rapid stirring at 45--50° C. Foam stability and enhancement were measured at 0.1% based on sodium and ammonium lauryl sulfate (0.16% total solids) at 45° C. and 0 or 120 parts per million (ppm) hardness calcium:magnesium ion 2:1.

[10] = 5.0% in […] sodium lauryl sulfate
[11] = 3.0% in […] sodium lauryl sulfate

## CCCCCCCCCNC(=O)[C@H](O)[C@@H](O)[C@H](O)[C@H](O)CO [C9 D-Gluconamide]
[1]
  Foam Height Initial: 0 mm
  Foam Height Final: 0 mm
[2]; 4.0% in […] sodium lauryl sulfate
  Appearance: Precipitate
[2]; 4.0%
  Appearance (Time): time of precipitate: 2 weeks
[2]; [10]
  Appearance: Precipitate
[2]; 5.0%
  Appearance (Time): time of precipitate: 2 weeks
[3]
  Krafft Point (0.1%): 53 °C

## CCCCCCCCCCNC(=O)[C@H](O)[C@@H](O)[C@H](O)[C@H](O)CO [C10 D-Gluconamide]
[1]
  Foam Height Final: 6 mm
[2]; [11]
  Appearance: Precipitate
[2]; [10]
  Appearance: Precipitate
[3]
  Krafft Point (0.1%): 75 °C

## CCCCCCCCCCCCOCCCNC(=O)[C@H](O)[C@@H](O)[C@H](O)[C@H](O)CO [C12 Oxypropyl D-Gluconamide]
[1]
  Foam Height Initial: 200 mm
  Foam Height Final: 110 mm
[2]; [11]
  Appearance: Clear
[2]; [10]
  Appearance: Precipitate
[2]; 5.0%
  Appearance (Time): time of precipitate: 5 months
[4]; 3.0% thickener
  Viscosity Increase: 120 x
  Viscosity: 1800 Centipoise
[4]; 5.0% thickener
  Viscosity Increase: 1373 x
  Viscosity: 20600 Centipoise
[3]
  Krafft Point (0.1%): 61 °C

## CCCCCCCCCCCCOCCCNC(=O)[C@H](O)[C@@H](O)[C@H](O[C@@H]1O[C@H](CO)[C@H](O)[C@H](O)[C@H]1O)[C@H](O)CO [C12 Oxypropyl D-Lactobionamide, dodecyloxypropyl D-lactobionamide]
[4]; 3.0% thickener
  Viscosity Increase: 23 x
  Viscosity: 340 Centipoise
[4]; 5.0% thickener
  Viscosity Increase: 97 x
  Viscosity: 1455 Centipoise
[3]
  Krafft Point (1.0%): < 0 °C

## CCCCCCCCCCCCOCCOCCOCCOCCOCCOCCOCCO [Dodecylhepta(oxyethylene) Ether]
[5]
  Γmax (surface excess concentration at surface saturation): 2.71 × 10^-10 mole/cm^2
[6]; 25 °C
  Πcmc (surface pressure): 38.3 dyn/cm
[6]; 40 °C
  Πcmc (surface pressure): 38.5 dyn/cm
[7]
  Πcmc (surface pressure): 36.8 dyn/cm
[8]; 25 °C
  Γmax (surface excess concentration at surface saturation): 2.90 × 10^-10 mole/cm^2
[8]; 40 °C
  Γmax (surface excess concentration at surface saturation): 2.77 × 10^-10 mole/cm^2

## CCCCCCCCCCCCOCCOCCOCCOCCOCCO [Dodecylpenta(oxyethylene) Ether]
[5]
  Γmax (surface excess concentration at surface saturation): 3.16 × 10^-10 mole/cm^2
[6]; 25 °C
  CMC/C20: 15.0
  Πcmc (surface pressure): 41.5 dyn/cm
[6]; 40 °C
  Πcmc (surface pressure): 41.2 dyn/cm
[7]
  Πcmc (surface pressure): 40.7 dyn/cm
[8]; 25 °C
  Γmax (surface excess concentration at surface saturation): 3.31 × 10^-10 mole/cm^2
[8]; 40 °C
  Γmax (surface excess concentration at surface saturation): 3.28 × 10^-10 mole/cm^2

## CCCCCCCCCCCCOCCOCCOCCOCCO [Dodecyltetra(oxyethylene) Ether]
[5]
  Γmax (surface excess concentration at surface saturation): 3.01 × 10^-10 mole/cm^2
[6]; 25 °C
  Πcmc (surface pressure): 43.4 dyn/cm
[6]; 40 °C
  Πcmc (surface pressure): 42.0 dyn/cm
[7]
  Πcmc (surface pressure): 40.7 dyn/cm
[8]; 25 °C
  Γmax (surface excess concentration at surface saturation): 3.63 × 10^-10 mole/cm^2
[8]; 40 °C
  Γmax (surface excess concentration at surface saturation): 3.41 × 10^-10 mole/cm^2

## CCCCCCCCCCCCOCCOCCOCCO [Dodecyltri(oxyethylene) Ether]
[5]
  Γmax (surface excess concentration at surface saturation): 3.83 × 10^-10 mole/cm^2
[6]; 25 °C
  Πcmc (surface pressure): 44.1 dyn/cm
[6]; 40 °C
  Πcmc (surface pressure): 43.1 dyn/cm
[7]
  Πcmc (surface pressure): 41.4 dyn/cm
[8]; 25 °C
  Γmax (surface excess concentration at surface saturation): 3.98 × 10^-10 mole/cm^2
[8]; 40 °C
  Γmax (surface excess concentration at surface saturation): 3.90 × 10^-10 mole/cm^2

## CCCCCCCCCCCC(=O)N(CCO)CCO [Lauramide DEA, lauramide diethanolamine]
[9]
  Initial FH: 190 mm

## coco D-gluconamide
[2]; [11]
  Appearance: Precipitate
[2]; 3.0%
  Appearance (Time): time of precipitate: 1 days
[2]; [10]
  Appearance: Precipitate
[2]; 5.0%
  Appearance (Time): time of precipitate: 0.083 days

## cocoaminopropyl D-gluconamide
[1]
  Foam Height Initial: 186 mm
  Foam Height Final: 182 mm
[2]; [11]
  Appearance: Clear
[2]; [10]
  Appearance: Clear
[3]
  Krafft Point (0.1%): 18 °C

## cocoaminopropyl D-lactobionamide
[1]
  Foam Height Initial: 171 mm
  Foam Height Final: 168 mm
[3]
  Krafft Point (1.0%): < 0 °C

## dodecyl to pentadecyloxypropyl D-gluconamide [C12 -C15 Oxypropyl D-Gluconamide]
[1]
  Foam Height Initial: 200 mm
  Foam Height Final: 110 mm
[3]
  Krafft Point (0.1%): 58 °C

## dodecyl to pentadecyloxypropyl D-lactobionamide [C12 -C15 Oxypropyl D-Lactobionamide]
[1]
  Foam Height Initial: 166 mm
  Foam Height Final: 155 mm
[3]
  Krafft Point (1.0%): < 0 °C

## dodecyl to pentadecyloxypropylaminopropyl D-gluconamide
[1]
  Foam Height Initial: 180 mm
[3]
  Krafft Point (0.1%): < 0 °C

## dodecyl to pentadecyloxypropylaminopropyl D-lactobionamide
[1]
  Foam Height Initial: 173 mm
  Foam Height Final: 169 mm
[3]
  Krafft Point (1.0%): < 0 °C

## octyl/decyloxypropyl D-lactobionamide [C8 /C10 Oxypropyl D-Lactobionamide]
[1]
  Foam Height Initial: 168 mm
  Foam Height Final: 158 mm
[2]; [11]
  Appearance: Clear
[2]; [10]
  Appearance: Clear
[3]
  Krafft Point (1.0%): < 0 °C

## octyl/decyloxypropyl D-ribonamide [C8 /C10 Oxypropyl D-Ribonamide]
[1]
  Foam Height Initial: 217 mm
  Foam Height Final: 200 mm
[3]
  Krafft Point (0.1%): 10 °C
